Patent US10640547B2, “Immunotherapy against melanoma and other cancers” (IMMATICS BIOTECHNOLOGIES GMBH, priority 2016, dated 2020)

How the values were obtained:
CD8+ T cells = experiment: In vitro immunogenicity: T-cell priming with artificial APCs loaded with peptide/MHC and anti-CD28, pMHC multimer readout; type: cell-based, human; settings: Table 10B; HLA-A*02 restricted peptides; percentage of positive wells among evaluable
Source text: In order to obtain information regarding the immunogenicity of the TUMAPs of the present invention, the inventors performed investigations using an in vitro T-cell priming assay based on repeated stimulations of CD8+ T cells with artificial antigen presenting cells (aAPCs) loaded with peptide/MHC complexes and anti-CD28 antibody.
In order to perform in vitro stimulations by artificial antigen presenting cells loaded with peptide-MHC complex (pMHC) and anti-CD28 antibody, the inventors first isolated CD8+ T cells from fresh HLA-A*02 leukapheresis products via positive selection using CD8 microbeads (Miltenyi Biotec, Bergisch-Gladbach, Germany) of healthy donors obtained from the University clinics Mannheim, Germany, after informed consent.
PBMCs and isolated CD8+ lymphocytes were incubated in T-cell medium (TCM) until use consisting of RPMI-Glutamax (Invitrogen, Karlsruhe, Germany) supplemented with 10% heat inactivated human AB serum (PAN-Biotech, Aidenbach, Germany), 100 U/ml Penicillin/100 μg/ml Streptomycin (Cambrex, Cologne, Germany), 1 mM sodium pyruvate (CC Pro, Oberdorla, Germany), 20 μg/ml Gentamycin (Cambrex). 2.5 ng/ml IL-7 (PromoCell, Heidelberg, Germany) and 10 U/ml IL-2 (Novartis Pharma, Nürnberg, Germany) were also added to the TCM at this step.
Generation of pMHC/anti-CD28 coated beads, T-cell stimulations and readout was performed in a highly defined in vitro system using four different pMHC molecules per stimulation condition and 8 different pMHC molecules per readout condition.
The purified co-stimulatory mouse IgG2a anti human CD28 Ab 9.3 (Jung et al., 1987) was chemically biotinylated using Sulfo-N-hydroxysuccinimidobiotin as recommended by the manufacturer (Perbio, Bonn, Germany). Beads used were 5.6 μm diameter streptavidin coated polystyrene particles (Bangs Laboratories, Illinois, USA).
800.000 beads/200 μl were coated in 96-well plates in the presence of 4×12.5 ng different biotin-pMHC, washed and 600 ng biotin anti-CD28 were added subsequently in a volume of 200 μl. Stimulations were initiated in 96-well plates by co-incubating 1×10^6 CD8+ T cells with 2×10^5 washed coated beads in 200 μl TCM supplemented with 5 ng/ml IL-12 (PromoCell) for 3 days at 37° C. Half of the medium was then exchanged by fresh TCM supplemented with 80 U/ml IL-2 and incubating was continued for 4 days at 37° C. This stimulation cycle was performed for a total of three times. For the pMHC multimer readout using 8 different pMHC molecules per condition, a two-dimensional combinatorial coding approach was used as previously described (Andersen et al., 2012) with minor modifications encompassing coupling to 5 different fluorochromes. Finally, multimeric analyses were performed by staining the cells with Live/dead near IR dye (Invitrogen, Karlsruhe, Germany), CD8-FITC antibody clone SK1 (BD, Heidelberg, Germany) and fluorescent pMHC multimers. For analysis, a BD LSRII SORP cytometer equipped with appropriate lasers and filters was used. Peptide specific cells were calculated as percentage of total CD8+ cells. Evaluation of multimeric analysis was done using the FlowJo software (Tree Star, Oregon, USA). In vitro priming of specific multimer+CD8+ lymphocytes was detected by comparing to negative control stimulations.

HLA-A*02:01 = HLA-A*02:01 (Homo sapiens, UniProt P04439, D140Y/D185E/D98H/E176V/E277Q/G131W/G231S/I119V/I121R/I166T/I218V/L300P/L318F/N151K/N90K/P208A/P217A/Q86G/Q94H/R138H/R169H/T345S); experiment: MHC binding assay (UV-ligand exchange, β2m ELISA); settings: MHC class I binding score; binding to HLA-A*02:01 ranged by peptide exchange yield (UV-ligand exchange, β2m ELISA)
Summary of the method: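 Peptide–MHC complexes formed by UV-ligand exchange, cleaving a UV-sensitive peptide so the test peptide can bind. Exchange yield measured by ELISA: complexes captured on streptavidin-coated wells, diluted 100-fold, detected with HRP anti-β2m (1 h, 37 °C) and TMB at 450 nm, against refolded HLA-A*02:01/MLA-001 standards (15-500 ng/ml).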

Substance | Peptide exchange (HLA-A*02:01) | Wells positive [%] (CD8+ T cells)
13 (IQSETTVTV; listed as Homo sapiens) [compound 13] | ++++ (>75% = ++++) | ++ (20%-49% = ++)
16 (GLFPSNFVTA; listed as Homo sapiens) [compound 16] | ++++ (>75% = ++++) | + (<20% = +)
20 (VISPHGIASV; listed as Homo sapiens) [compound 20] | ++++ (>75% = ++++) | ++ (20%-49% = ++)
31 (FLPRKFPSL; listed as Homo sapiens) [compound 31] | ++++ (>75% = ++++) | ++ (20%-49% = ++)
33 (SLYSYFQKV; listed as Homo sapiens) [compound 33] | ++++ (>75% = ++++) | ++++ (≥70% = ++++)
34 (YLINFEIRSL; listed as Homo sapiens) [compound 34] | ++++ (>75% = ++++) | + (<20% = +)
128 (ALFPGDVDRL; listed as Homo sapiens) [compound 128] | +++ (>50 = +++) | + (<20% = +)
133 (ALDPAYTTL; listed as Homo sapiens) [compound 133] | +++ (>50 = +++) | + (<20% = +)
155 (GLAGFFASV; listed as Homo sapiens) [compound 155] | ++++ (>75% = ++++) | ++++ (≥70% = ++++)
189 (KALQFLEEV; listed as Homo sapiens) [compound 189] | ++++ (>75% = ++++) | + (<20% = +)

Second part, led by results:

Peptide exchange (HLA-A*02:01) | Substance | Wells positive [%] (CD8+ T cells)
++++ (>75% = ++++) | 14 (VLYEMLYGL; listed as Homo sapiens) [compound 14] | +++ (50%-69% = +++)
++++ (>75% = ++++) | 15 (VLYDPVVGC; listed as Homo sapiens) [compound 15] | + (<20% = +)
++++ (>75% = ++++) | 17 (GVVHGVATV; listed as Homo sapiens) [compound 17] | + (<20% = +)
++++ (>75% = ++++) | 18 (SLADVVDTL; listed as Homo sapiens) [compound 18] | + (<20% = +)
++ (>20% = ++) | 21 (FMYNFQLVTL; listed as Homo sapiens) [compound 21] | + (<20% = +)
++++ (>75% = ++++) | 116 (LMDETMKEL; listed as Homo sapiens) [compound 116] | + (<20% = +)
++++ (>75% = ++++) | 121 (FLEDLVPYL; listed as Homo sapiens) [compound 121] | +++ (50%-69% = +++)
++++ (>75% = ++++) | 191 (YLDKMNNNI; listed as Homo sapiens) [compound 191] | + (<20% = +)
++++ (>75% = ++++) | 192 (KLFTQIFGV; listed as Homo sapiens) [compound 192] | + (<20% = +)
++++ (>75% = ++++) | 211 (FLPFLTTEV; listed as Homo sapiens) [compound 211] | + (<20% = +)
++++ (>75% = ++++) | 213 (LLDPTNVFI; listed as Homo sapiens) [compound 213] | ++ (20%-49% = ++)
++++ (>75% = ++++) | 232 (KILPDLNTV; listed as Homo sapiens) [compound 232] | + (<20% = +)
